Assay results reported in paper PMC11864979, “First-in-class ultralong-target-residence-time p38α inhibitors as a mitosis-targeted therapy for colorectal cancer” (Nature Cancer, 2025).
Where two headings read alike, the source gives them in different places.

What was measured:
Test in all cases: selectivity profiling in a panel of 340 wild-type kinases (Reaction Biology Europe)
Format in all cases: binding
340 wild-type kinases [1] = biological target: T1, 340 wild-type kinases (Homo sapiens, UniProt P09619)
T1 construct: purchased Reaction Biology Europe

340 wild-type kinases [2] = biological target: T2, 340 wild-type kinases (Homo sapiens, UniProt P15056)
T2 construct: purchased Reaction Biology Europe

340 wild-type kinases [3] = biological target: T3, 340 wild-type kinases (Homo sapiens, UniProt P17948)
T3 construct: purchased Reaction Biology Europe

340 wild-type kinases [4] = biological target: T4, 340 wild-type kinases (Homo sapiens, UniProt P22455)
T4 construct: purchased Reaction Biology Europe

340 wild-type kinases [5] = biological target: T5, 340 wild-type kinases (Homo sapiens, UniProt P35916)
T5 construct: purchased Reaction Biology Europe

340 wild-type kinases [6] = biological target: T6, 340 wild-type kinases (Homo sapiens, UniProt P42345)
T6 construct: purchased Reaction Biology Europe

340 wild-type kinases [7] = biological target: T7, 340 wild-type kinases (Homo sapiens, UniProt P49760)
T7 construct: purchased Reaction Biology Europe

340 wild-type kinases [8] = biological target: T8, 340 wild-type kinases (Homo sapiens, UniProt P54764)
T8 construct: purchased Reaction Biology Europe

340 wild-type kinases [9] = biological target: T9, 340 wild-type kinases (Homo sapiens, UniProt Q13882)
T9 construct: purchased Reaction Biology Europe

340 wild-type kinases [10] = biological target: T10, 340 wild-type kinases (Homo sapiens, UniProt Q5TCY1)
T10 construct: purchased Reaction Biology Europe

340 wild-type kinases [11] = biological target: T11, 340 wild-type kinases (Homo sapiens, UniProt Q86UE8)
T11 construct: purchased Reaction Biology Europe

340 wild-type kinases [12] = biological target: T12, 340 wild-type kinases (Homo sapiens, UniProt Q96PY6)
T12 construct: purchased Reaction Biology Europe
T12 sequence (Q96PY6 1-1258): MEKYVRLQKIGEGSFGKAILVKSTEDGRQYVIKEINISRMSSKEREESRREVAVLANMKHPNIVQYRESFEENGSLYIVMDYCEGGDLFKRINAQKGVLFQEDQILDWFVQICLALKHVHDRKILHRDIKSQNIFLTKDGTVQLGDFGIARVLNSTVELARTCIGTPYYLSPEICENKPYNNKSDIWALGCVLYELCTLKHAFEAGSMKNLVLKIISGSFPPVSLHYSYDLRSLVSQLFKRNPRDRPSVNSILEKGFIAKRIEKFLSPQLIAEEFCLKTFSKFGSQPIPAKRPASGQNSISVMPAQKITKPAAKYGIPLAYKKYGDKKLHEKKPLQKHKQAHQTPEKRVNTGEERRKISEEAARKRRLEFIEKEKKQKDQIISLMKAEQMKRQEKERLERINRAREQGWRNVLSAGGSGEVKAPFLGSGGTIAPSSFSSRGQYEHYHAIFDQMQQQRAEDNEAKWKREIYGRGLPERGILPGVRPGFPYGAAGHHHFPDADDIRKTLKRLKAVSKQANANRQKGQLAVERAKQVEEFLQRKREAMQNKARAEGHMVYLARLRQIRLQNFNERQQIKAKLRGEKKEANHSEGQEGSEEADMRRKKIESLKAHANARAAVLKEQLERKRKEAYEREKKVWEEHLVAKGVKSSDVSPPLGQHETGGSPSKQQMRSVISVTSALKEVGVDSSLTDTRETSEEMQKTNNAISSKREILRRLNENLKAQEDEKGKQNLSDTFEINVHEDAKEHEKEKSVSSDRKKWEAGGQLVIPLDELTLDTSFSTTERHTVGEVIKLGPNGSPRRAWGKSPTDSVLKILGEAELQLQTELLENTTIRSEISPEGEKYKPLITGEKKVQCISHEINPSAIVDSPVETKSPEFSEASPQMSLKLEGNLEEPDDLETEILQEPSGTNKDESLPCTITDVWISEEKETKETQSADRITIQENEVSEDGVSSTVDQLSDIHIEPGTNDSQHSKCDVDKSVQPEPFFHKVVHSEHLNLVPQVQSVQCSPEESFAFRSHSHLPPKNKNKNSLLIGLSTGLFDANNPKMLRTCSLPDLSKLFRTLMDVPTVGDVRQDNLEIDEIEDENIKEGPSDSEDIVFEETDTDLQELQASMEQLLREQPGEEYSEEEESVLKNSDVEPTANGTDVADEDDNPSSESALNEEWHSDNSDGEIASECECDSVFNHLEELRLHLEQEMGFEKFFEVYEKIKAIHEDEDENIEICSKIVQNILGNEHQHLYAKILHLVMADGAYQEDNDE

T9 sequence (Q13882 whole entry): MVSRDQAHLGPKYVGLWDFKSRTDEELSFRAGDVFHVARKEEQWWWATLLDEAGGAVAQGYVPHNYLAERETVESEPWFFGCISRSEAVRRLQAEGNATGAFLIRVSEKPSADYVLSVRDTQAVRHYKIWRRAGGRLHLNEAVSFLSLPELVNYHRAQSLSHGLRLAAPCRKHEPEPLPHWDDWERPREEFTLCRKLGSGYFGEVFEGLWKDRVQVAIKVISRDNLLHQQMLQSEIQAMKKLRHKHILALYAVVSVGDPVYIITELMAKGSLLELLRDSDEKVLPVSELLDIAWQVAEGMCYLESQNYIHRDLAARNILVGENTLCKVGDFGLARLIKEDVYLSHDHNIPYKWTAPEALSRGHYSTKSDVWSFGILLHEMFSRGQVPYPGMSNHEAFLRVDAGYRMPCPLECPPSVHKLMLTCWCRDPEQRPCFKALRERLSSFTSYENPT
T2 sequence (P15056 whole entry): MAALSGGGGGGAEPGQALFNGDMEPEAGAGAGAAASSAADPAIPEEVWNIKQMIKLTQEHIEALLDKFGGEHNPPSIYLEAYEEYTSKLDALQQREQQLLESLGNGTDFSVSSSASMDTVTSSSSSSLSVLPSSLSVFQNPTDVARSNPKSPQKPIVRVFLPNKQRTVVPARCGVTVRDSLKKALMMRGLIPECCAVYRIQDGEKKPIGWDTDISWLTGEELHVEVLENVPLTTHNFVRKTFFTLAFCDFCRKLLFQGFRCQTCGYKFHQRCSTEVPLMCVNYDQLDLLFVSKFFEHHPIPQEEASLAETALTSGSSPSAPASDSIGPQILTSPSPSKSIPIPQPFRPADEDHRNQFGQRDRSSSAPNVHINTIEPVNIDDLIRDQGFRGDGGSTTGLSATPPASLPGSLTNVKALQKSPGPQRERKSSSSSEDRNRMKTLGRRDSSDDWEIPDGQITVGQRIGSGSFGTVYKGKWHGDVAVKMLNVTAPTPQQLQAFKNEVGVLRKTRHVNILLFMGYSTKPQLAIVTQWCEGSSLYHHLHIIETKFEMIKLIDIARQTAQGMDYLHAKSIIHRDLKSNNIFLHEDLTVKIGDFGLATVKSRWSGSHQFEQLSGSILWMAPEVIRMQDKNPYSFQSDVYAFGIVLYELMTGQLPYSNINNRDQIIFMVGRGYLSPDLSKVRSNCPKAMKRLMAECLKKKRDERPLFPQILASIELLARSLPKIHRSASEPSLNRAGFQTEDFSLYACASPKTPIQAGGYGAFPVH
T3 sequence (P17948 27-1338): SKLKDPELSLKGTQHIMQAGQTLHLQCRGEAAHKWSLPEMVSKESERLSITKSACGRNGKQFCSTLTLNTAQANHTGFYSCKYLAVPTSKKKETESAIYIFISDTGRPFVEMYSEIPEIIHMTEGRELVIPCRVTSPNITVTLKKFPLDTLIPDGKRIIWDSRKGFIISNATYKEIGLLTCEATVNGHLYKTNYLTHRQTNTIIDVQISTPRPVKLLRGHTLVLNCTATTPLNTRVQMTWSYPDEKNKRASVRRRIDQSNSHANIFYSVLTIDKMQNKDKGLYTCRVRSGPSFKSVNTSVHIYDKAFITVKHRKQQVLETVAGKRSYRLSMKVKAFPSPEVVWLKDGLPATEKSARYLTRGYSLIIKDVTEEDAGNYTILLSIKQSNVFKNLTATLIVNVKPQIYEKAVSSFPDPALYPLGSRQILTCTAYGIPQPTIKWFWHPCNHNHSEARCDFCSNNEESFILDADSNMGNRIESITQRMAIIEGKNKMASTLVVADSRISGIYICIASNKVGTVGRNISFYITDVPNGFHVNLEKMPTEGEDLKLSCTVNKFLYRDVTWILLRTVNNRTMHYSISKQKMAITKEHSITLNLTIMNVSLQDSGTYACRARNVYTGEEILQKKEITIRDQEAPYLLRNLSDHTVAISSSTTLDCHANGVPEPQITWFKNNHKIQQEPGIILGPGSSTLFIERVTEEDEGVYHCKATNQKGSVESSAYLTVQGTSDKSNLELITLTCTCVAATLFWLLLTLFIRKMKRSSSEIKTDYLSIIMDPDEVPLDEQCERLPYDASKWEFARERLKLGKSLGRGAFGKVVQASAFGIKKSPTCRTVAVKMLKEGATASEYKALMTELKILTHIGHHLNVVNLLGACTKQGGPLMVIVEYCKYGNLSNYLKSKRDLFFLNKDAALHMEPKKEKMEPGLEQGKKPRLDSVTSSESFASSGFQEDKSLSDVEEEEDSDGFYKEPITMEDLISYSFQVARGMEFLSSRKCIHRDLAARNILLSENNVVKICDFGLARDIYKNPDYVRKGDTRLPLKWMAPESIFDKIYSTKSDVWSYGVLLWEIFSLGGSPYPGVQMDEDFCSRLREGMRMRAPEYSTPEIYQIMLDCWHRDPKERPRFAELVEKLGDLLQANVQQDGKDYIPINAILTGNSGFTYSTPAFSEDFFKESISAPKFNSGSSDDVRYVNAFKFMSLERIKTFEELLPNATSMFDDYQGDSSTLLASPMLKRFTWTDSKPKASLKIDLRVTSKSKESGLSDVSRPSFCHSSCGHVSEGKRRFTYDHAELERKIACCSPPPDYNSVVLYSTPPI
T8 sequence (P54764 20-986): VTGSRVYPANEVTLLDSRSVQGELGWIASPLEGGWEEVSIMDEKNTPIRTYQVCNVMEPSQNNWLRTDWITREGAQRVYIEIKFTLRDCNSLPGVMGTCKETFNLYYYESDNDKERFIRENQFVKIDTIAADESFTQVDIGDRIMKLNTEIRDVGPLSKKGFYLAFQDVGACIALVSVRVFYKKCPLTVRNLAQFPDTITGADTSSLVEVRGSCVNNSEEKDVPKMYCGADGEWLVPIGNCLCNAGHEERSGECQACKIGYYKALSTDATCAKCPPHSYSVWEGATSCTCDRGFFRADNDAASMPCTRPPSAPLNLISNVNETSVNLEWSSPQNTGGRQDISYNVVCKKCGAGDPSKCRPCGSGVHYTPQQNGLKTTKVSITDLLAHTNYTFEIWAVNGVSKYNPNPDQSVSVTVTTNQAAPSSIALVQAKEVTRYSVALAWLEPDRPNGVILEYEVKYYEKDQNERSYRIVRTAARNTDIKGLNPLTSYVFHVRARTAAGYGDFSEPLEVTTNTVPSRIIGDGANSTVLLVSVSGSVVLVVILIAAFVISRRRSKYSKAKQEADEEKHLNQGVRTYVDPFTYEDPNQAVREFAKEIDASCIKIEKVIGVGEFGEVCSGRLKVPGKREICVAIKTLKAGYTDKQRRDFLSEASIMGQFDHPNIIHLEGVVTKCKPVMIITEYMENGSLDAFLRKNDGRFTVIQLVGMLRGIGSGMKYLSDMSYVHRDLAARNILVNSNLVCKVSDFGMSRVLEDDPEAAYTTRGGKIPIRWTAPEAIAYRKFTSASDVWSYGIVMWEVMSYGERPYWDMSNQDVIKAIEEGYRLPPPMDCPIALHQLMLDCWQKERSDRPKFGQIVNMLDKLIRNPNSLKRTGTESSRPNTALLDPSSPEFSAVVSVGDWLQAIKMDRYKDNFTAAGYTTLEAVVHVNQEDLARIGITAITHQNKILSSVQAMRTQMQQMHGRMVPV
T7 sequence (P49760 whole entry): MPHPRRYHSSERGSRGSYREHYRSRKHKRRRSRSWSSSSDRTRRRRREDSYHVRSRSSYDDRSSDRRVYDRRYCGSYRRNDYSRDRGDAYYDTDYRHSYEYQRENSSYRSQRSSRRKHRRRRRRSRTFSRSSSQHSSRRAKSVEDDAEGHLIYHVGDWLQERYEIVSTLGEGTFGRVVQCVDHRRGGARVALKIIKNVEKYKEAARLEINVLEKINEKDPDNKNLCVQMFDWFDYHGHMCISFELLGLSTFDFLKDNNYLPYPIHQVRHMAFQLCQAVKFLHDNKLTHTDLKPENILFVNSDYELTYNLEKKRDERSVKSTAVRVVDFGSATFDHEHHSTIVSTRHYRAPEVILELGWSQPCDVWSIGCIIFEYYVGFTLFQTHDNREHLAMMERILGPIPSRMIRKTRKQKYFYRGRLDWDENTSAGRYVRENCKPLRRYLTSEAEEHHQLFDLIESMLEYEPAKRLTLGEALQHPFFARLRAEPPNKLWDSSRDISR
T4 sequence (P22455 22-802): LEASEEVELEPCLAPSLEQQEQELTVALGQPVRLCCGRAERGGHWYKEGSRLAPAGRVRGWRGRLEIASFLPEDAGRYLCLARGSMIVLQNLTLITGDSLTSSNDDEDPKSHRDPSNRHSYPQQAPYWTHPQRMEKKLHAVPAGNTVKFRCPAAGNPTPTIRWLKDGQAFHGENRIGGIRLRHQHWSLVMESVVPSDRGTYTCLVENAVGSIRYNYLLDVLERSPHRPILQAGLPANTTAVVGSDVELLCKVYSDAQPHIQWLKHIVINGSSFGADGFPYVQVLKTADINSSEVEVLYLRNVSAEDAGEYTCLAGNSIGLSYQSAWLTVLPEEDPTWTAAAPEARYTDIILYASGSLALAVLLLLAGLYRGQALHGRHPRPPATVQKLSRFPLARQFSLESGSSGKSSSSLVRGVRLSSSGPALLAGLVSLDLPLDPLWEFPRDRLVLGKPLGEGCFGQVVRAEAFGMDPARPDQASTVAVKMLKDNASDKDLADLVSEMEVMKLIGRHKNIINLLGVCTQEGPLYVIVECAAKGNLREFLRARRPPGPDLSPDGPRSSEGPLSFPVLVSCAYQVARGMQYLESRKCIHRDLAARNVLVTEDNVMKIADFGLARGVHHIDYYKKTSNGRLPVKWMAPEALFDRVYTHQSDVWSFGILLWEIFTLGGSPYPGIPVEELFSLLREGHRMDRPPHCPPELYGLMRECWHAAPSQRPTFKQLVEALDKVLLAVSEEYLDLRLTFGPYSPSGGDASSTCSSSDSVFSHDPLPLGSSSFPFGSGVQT

## CNC(=O)c1ccc2c(c1)C(=O)c1ccc(Nc3ccc(F)c(NC(=O)C4CC4)c3)cc1CC2 [Compound 2015]
340 wild-type kinases [1]; 0.2 µM 2015, read-out: PDGFRbeta residual activity
  remaining activity at 0.2 µM: 101%
340 wild-type kinases [1]; 1 µM 2015, read-out: PDGFRbeta residual activity
  remaining activity at 1 µM: 101%
340 wild-type kinases [1]; PDGFRbeta, 0.2 µM, read-out: residual activity
  remaining activity at 0.2 µM: 101%
340 wild-type kinases [1]; PDGFRbeta, 1 µM, read-out: residual activity
  remaining activity at 1 µM: 101%
340 wild-type kinases [2]; 0.2 µM 2015, read-out: BRAF residual activity
  remaining activity at 0.2 µM: 93.9%
340 wild-type kinases [2]; 1 µM 2015, read-out: BRAF residual activity
  remaining activity at 1 µM: 104%
340 wild-type kinases [2]; BRAF, 0.2 µM, read-out: residual activity
  remaining activity at 0.2 µM: 94%
340 wild-type kinases [2]; BRAF, 1 µM, read-out: residual activity
  remaining activity at 1 µM: 104%
340 wild-type kinases [3]; 0.2 µM 2015, read-out: VEGFR1 residual activity
  remaining activity at 0.2 µM: 113%
340 wild-type kinases [3]; 1 µM 2015, read-out: VEGFR1 residual activity
  remaining activity at 1 µM: 116%
340 wild-type kinases [3]; VEGFR1, 0.2 µM, read-out: residual activity
  remaining activity at 0.2 µM: 113%
340 wild-type kinases [3]; VEGFR1, 1 µM, read-out: residual activity
  remaining activity at 1 µM: 116%
340 wild-type kinases [4]; 0.2 µM 2015, read-out: FGFR4 residual activity
  remaining activity at 0.2 µM: 107%
340 wild-type kinases [4]; 1 µM 2015, read-out: FGFR4 residual activity
  remaining activity at 1 µM: 95.9%
340 wild-type kinases [4]; FGFR4, 0.2 µM, read-out: residual activity
  remaining activity at 0.2 µM: 107%
340 wild-type kinases [4]; FGFR4, 1 µM, read-out: residual activity
  remaining activity at 1 µM: 95.9%
340 wild-type kinases [5]; 0.2 µM 2015, read-out: VEGFR3 residual activity
  remaining activity at 0.2 µM: 109%
340 wild-type kinases [5]; 1 µM 2015, read-out: VEGFR3 residual activity
  remaining activity at 1 µM: 94.2%
340 wild-type kinases [5]; VEGFR3, 0.2 µM, read-out: residual activity
  remaining activity at 0.2 µM: 109%
340 wild-type kinases [5]; VEGFR3, 1 µM, read-out: residual activity
  remaining activity at 1 µM: 94.2%
340 wild-type kinases [6]; 0.2 µM 2015, read-out: MTOR residual activity
  remaining activity at 0.2 µM: 97.9%
340 wild-type kinases [6]; 1 µM 2015, read-out: MTOR residual activity
  remaining activity at 1 µM: 101%
340 wild-type kinases [6]; MTOR, 0.2 µM, read-out: residual activity
  remaining activity at 0.2 µM: 97.9%
340 wild-type kinases [6]; MTOR, 1 µM, read-out: residual activity
  remaining activity at 1 µM: 101%
340 wild-type kinases [7]; 0.2 µM 2015, read-out: CLK2 residual activity
  remaining activity at 0.2 µM: 110%
340 wild-type kinases [7]; 1 µM 2015, read-out: CLK2 residual activity
  remaining activity at 1 µM: 96.8%
340 wild-type kinases [7]; CLK2, 0.2 µM, read-out: residual activity
  remaining activity at 0.2 µM: 110%
340 wild-type kinases [7]; CLK2, 1 µM, read-out: residual activity
  remaining activity at 1 µM: 96.8%
340 wild-type kinases [8]; 0.2 µM 2015, read-out: EPHA4 residual activity
  remaining activity at 0.2 µM: 95.1%
340 wild-type kinases [8]; 1 µM 2015, read-out: EPHA4 residual activity
  remaining activity at 1 µM: 91.4%
340 wild-type kinases [8]; EPHA4, 0.2 µM, read-out: residual activity
  remaining activity at 0.2 µM: 95.1%
340 wild-type kinases [8]; EPHA4, 1 µM, read-out: residual activity
  remaining activity at 1 µM: 91.5%
340 wild-type kinases [9]; 0.2 µM 2015, read-out: BRK residual activity
  remaining activity at 0.2 µM: 100%
340 wild-type kinases [9]; 1 µM 2015, read-out: BRK residual activity
  remaining activity at 1 µM: 108%
340 wild-type kinases [9]; BRK, 0.2 µM, read-out: residual activity
  remaining activity at 0.2 µM: 100%
340 wild-type kinases [9]; BRK, 1 µM, read-out: residual activity
  remaining activity at 1 µM: 108%
340 wild-type kinases [10]; 0.2 µM 2015, read-out: TTBK1 residual activity
  remaining activity at 0.2 µM: 88.5%
340 wild-type kinases [10]; 1 µM 2015, read-out: TTBK1 residual activity
  remaining activity at 1 µM: 93.4%
340 wild-type kinases [10]; TTBK1, 0.2 µM, read-out: residual activity
  remaining activity at 0.2 µM: 88.5%
340 wild-type kinases [10]; TTBK1, 1 µM, read-out: residual activity
  remaining activity at 1 µM: 93.4%
340 wild-type kinases [11]; 0.2 µM 2015, read-out: TLK2 residual activity
  remaining activity at 0.2 µM: 147%
340 wild-type kinases [11]; 1 µM 2015, read-out: TLK2 residual activity
  remaining activity at 1 µM: 124%
340 wild-type kinases [11]; TLK2, 0.2 µM, read-out: residual activity
  remaining activity at 0.2 µM: 147%
340 wild-type kinases [11]; TLK2, 1 µM, read-out: residual activity
  remaining activity at 1 µM: 124%
340 wild-type kinases [12]; 1 µM 2015, read-out: NEK1 residual activity
  remaining activity at 1 µM: 81.3%
340 wild-type kinases [12]; NEK1, 1 µM, read-out: residual activity
  remaining activity at 1 µM: 81.3%
340 wild-type kinases [12]; read-out: NEK1 residual activity
  remaining activity at 0.2 µM: 86.5%
340 wild-type kinases [12]; read-out: residual activity
  remaining activity at 0.2 µM: 86.5%
